Laboratory results: US20070027120A1, “Methods of using vitamin D compounds in the treatment of myelodysplastic syndromes” (priority 2002, published 2007)
Read-outs that look alike come from different tables or passages of the source.

Experiments:
MDS [1] = conditions: cited from earlier work
MDS [2] = conditions: 75 mg/m^2/day subcutaneously for 7 days out of 28; cited from earlier work
[3] = relative to calcitriol; cited from earlier work
MDS [4] = conditions: cited from earlier work; remark: listed apart in the source
refractory malignancies = conditions: weekly HDPA; cited from earlier work
[5] = system: low risk MDS and refractory anemia unresponsive to erythropoietin; test: Phase 2 trial of high dose pulse administration of calcitriol; assay type: in vivo, human
Protocol: Patients having low risk MDS and refractory anemia unresponsive to erythropoietin were entered into a Phase 2 trial to evaluate the effect of high dose pulse administration of calcitriol. These patients are red blood cell transfusion dependent because of severe anemia. Patients were administered weekly oral calcitriol at a dose of 45 μg for 20 consecutive weeks. The calcitriol was formulated in a composition containing the following excipients with the amount given in approximate percentage by weight: 65% MIGLYOL 812N®, 30% […] 44/14®, 5% vitamin-E TPGS and about 0.05% each of butylated hydroxytoluene (BHT) and butylated hydroxyanisole (BHA).

[6] = Patient #1, 45 μg oral weekly for 20 weeks
[7] = Patient #3, 45 μg oral weekly for 20 weeks

Compound: EPO: erythropoietin, hematopoietic growth factor
- subjects who respond (MDS [1]; EPO administered with G-CSF): about 40%
- subjects who respond (MDS [1]; EPO alone): about 20%
- rate of responsiveness (MDS [1]; refractory anemia and refractory anemia with ring sideroblasts): 21%
- rate of responsiveness (MDS [1]; refractory anemia with excess blasts): 8%

Compound: Nc1ncn([C@@H]2O[C@H](CO)[C@@H](O)[C@H]2O)c(=O)n1 [5-azacytidine]
- patients with a complete response (MDS [2]): 7%
- patients with at least a partial response (MDS [2]): ~60%

Compound: C=C1/C(=C/C=C2/CCC[C@@]3(C)C2CC[C@@H]3[C@H](C)CCCC(C)(C)O)C[C@@H](O)C[C@@H]1O (stereo in doubt) [calcitriol, 1α,25-dihydroxycholecalciferol]
- calcemic index [3]: 1
- dose at which hypercalcemia was induced (MDS [4]; daily administration (Koeffler et al.)): 2 µg/day
- maximum dose administered without hypercalcemia (MDS [4]; subjects with MDS (Mellibovsky et al.)): 0.75 µg/day
- dose-limiting toxicity (refractory malignancies): no dose-limiting toxicity
- mean peak calcitriol levels (refractory malignancies): within the therapeutic range
- protocol defined response [5, 6]: minor response (A minor erythroid responder is a subject with a baseline hemoglobin of less than 11 g/dL who experiences an increase of 1 to 2 g/dL from baseline)
- rise in hemoglobin as compared to baseline [5, 6]: more than one
- decrease in required red blood cell transfusions as compared to baseline ([5]; Patient #2, 45 μg oral weekly for 20 weeks): 50%
- protocol defined response [5, 7]: major response (A major erythroid responder is a subject with a baseline hemoglobin of less than 11 g/dL who experiences an increase of greater than or equal to 2 g/dL from the baseline)
- rise in hemoglobin as compared to baseline [5, 7]: more than two

Compound: C=C1/C(=C\C=C2/CCC[C@]3(C)[C@@H]([C@H](C)/C=C/[C@@H](O)C4CC4)CC[C@@H]23)C[C@@H](O)C[C@@H]1O [calcipotriol]
- calcemic index [3]: about 0.01
